Experimental data taken from patent US11273144B2, “Compounds and compositions for the treatment of muscular disorders and bone disorders” (Epirium Bio Inc., priority 2012, dated 2022).
Where “and” joins values, the source holds several entries; their conditions need not be identical. Equal values may be shown once.

Legend:
[1] = Effect on body growth of rats on dexamethasone with or without epicatechin; type: in vivo, SD rats; conditions: for Femur Length / Tibia Length: 37th day; for WEIGHT Avg / LENGTH Avg: group average; for WEIGHT Ind: individual rat
Protocol: SD rats of the body weight 50-60 g and age 3-4 weeks were divided into 4 groups. […] All dosing were by subcutaneous (SC) mode of administration. Dosing of animals was continued for 36 days. Body weight was measured every alternate day, overall length was measured weekly. Animals were photographed periodically to further support data. Feed intake, general health and movement were assessed routinely. On 37th day animals were sacrificed and femur and tibia length were measured using Vernier Calipers. Blood was collected and stored.

[2] = system: mouse myoblast cell line, C2C12; test: Mouse myoblast assay (C2C12, Western blot); type: cell-based; conditions: C2C12, enantiomers 10 nM to 1000 nM, within 24 hr
Protocol: Cells or skeletal muscle tissue samples were homogenized in 50 ul lysis buffer (1% triton X-100, 20 mmol/L Tris, 140 mmol/L NaCl, 2 mmol/L EDTA, and 0.1% SDS) with protease and phosphatase inhibitor cocktails supplemented with 1 mmol/L PMSF, 2 mmol/L Na3VO4 and 1 mmol/L NaP. Homogenates were passed through an insulin syringe five times, sonicated for 30 min at 4DC and centrifuged (12,000×g) for 10 min. The total protein content was measured in the supernatant. A total of 40)Ig of protein was loaded onto a 5% or 10% SDS-PAGE, electrotransferred, incubated for 1 h in blocking solution (5% nonfat dry milk in TBS plus 0.1% Tween 20 [TBS-T]), followed by either a 3-h incubation at room temperature or overnight incubation at 4DC with primary antibodies. Primary antibodies were typically diluted 1:1000 or 1:2000 in TBS-T plus 5% bovine serum albumin. Membranes were washed (3× for 5 min) in TBS-T and incubated 1 h at room temperature in the presence of HRP-conjugated secondary antibodies diluted 1:10,000 in blocking solution. Membranes were again washed 3 times in TBS-T, and the immunoblots were developed using an enhanced chemiluminescence detection kit. The band intensities were digitally quantified. All primary antibodies are commercially available. Epicatechin induces follistatin expression, suppresses myostatin expression and accelerates the differentiation of cultured mouse myoblasts into myotubes. […] The mouse myoblast cell line, C2C12, was grown to semi-confluence in 6-well tissue culture plates and then exposed to epicatechin (100 nM) for three days using literature-standardized differentiation inducing media: DMEM supplemented with 2% horse serum. Proteins were extracted, separated by conventional gel electrophoresis and stained as Western blots by reacting with commercially available antibodies specific for markers of muscle cell growth and differentiation. In experiments examining the comparative effects of (−) and (+) epicatechin enantiomers on muscle cells, the cells were grown to semi-confluence in 6 well plates, placed into literature-standardized differentiation medium containing horse serum, and then stimulated for 24 hours with (−) or (+) epicatechin enantiomers, at concentrations ranging from 10 nM to 1000 nM. The cells were then harvested as above, and Western blots were prepared to determine relative expression of PGCla and follistatin, using commercially available, specific, primary antibodies.

[3] = epicatechin 3 MPK s/c followed by dexamethasone
[4] = epicatechin 10 MPK s/c followed by dexamethasone

C[C@@H]1C[C@H]2[C@@H]3CCC4=CC(=O)C=C[C@]4(C)[C@@]3(F)[C@@H](O)C[C@]2(C)[C@@]1(O)C(=O)CO [DEX, Dexamethasone]
Femur Length ([1]; dexamethasone s/c alone): 22.68 mm | Tibia Length ([1]; dexamethasone s/c alone): 28.67 mm | WEIGHT Avg ([1]; Day 1, dexamethasone alone SC): 59.3 g | WEIGHT Ind ([1]; Day 1, dexamethasone alone SC): 55.4 g and 57.7 g and 64.8 g | WEIGHT Avg ([1]; Day 11, dexamethasone alone SC): 89.1 g | WEIGHT Ind ([1]; Day 11, dexamethasone alone SC): 91.1 g and 84.3 g and 91.9 g | LENGTH Avg ([1]; Day 13, dexamethasone alone SC): 15.3 cm | LENGTH Avg ([1]; Day 23, dexamethasone alone SC): 14.2 cm | WEIGHT Avg ([1]; Day 23, dexamethasone alone SC): 85.7 g | WEIGHT Ind ([1]; Day 23, dexamethasone alone SC): 88.0 g and 80.0 g and 89.0 g | LENGTH Avg ([1]; Day 35, dexamethasone alone SC): 14.2 cm | WEIGHT Avg ([1]; Day 35, dexamethasone alone SC): 96.1 g | WEIGHT Ind ([1]; Day 35, dexamethasone alone SC): 103.9 g and 93.1 g and 91.5 g

Oc1cc(O)c2c(c1)O[C@H](c1ccc(O)c(O)c1)[C@H](O)C2 [(−) epicatechin, (−)−epicatechin]
expression of PGC1u [2]: stimulated | expression of follistatin [2]: stimulated

Oc1cc(O)c2c(c1)O[C@H](c1ccc(O)c(O)c1)[C@H](O)C2 [epicatechin]
Femur Length [1, 3]: 29.57 mm | Tibia Length [1, 3]: 34.91 mm | Femur Length [1, 4]: 31.30 mm | Tibia Length [1, 4]: 35.37 mm

Oc1cc(O)c2c(c1)O[C@@H](c1ccc(O)c(O)c1)[C@@H](O)C2 [(+) epicatechin, (+)−epicatechin]
expression of PGC1u [2]: stimulated | expression of follistatin [2]: stimulated
